Assays:
[1] = Selectivity ratio as antilogarithm of smallest difference between the pKi value at 5-HT6 receptor and range of comparator receptors
[2] = biological target: T1, 5-hydroxytryptamine receptor 6 (Homo sapiens, UniProt P50406); assay: Binding affinity against human 5-hydroxytryptamine 6 receptor
[3] = biological target: T2, 5-hydroxytryptamine receptor 2C (Homo sapiens, UniProt P28335); assay: Binding affinity to human cloned 5-hydroxytryptamine 2C receptor in HEK 293 cells using [3H]- mesulergine as radioligand; assay type: cell-based, HEK293
T2 sequence (P28335 whole entry): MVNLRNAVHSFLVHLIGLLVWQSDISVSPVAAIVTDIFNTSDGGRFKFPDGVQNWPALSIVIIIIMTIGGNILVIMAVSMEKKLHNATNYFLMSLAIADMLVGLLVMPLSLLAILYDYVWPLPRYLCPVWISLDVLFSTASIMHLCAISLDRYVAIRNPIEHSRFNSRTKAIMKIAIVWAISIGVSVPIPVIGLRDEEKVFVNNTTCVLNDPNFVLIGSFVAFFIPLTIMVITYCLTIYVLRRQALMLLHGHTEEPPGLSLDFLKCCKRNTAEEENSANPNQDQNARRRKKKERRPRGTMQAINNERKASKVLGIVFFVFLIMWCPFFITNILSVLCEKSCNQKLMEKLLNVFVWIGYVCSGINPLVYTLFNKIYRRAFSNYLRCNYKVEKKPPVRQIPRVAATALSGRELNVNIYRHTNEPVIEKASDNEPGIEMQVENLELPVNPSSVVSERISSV

[4] = biological target: 5-hydroxytryptamine receptor 1D (Homo sapiens, UniProt P28221); assay: Binding affinity to human cloned 5-hydroxytryptamine 1D receptor in CHO cells using [3H]5-HT as radioligand; assay type: cell-based
[5] = biological target: T1, 5-hydroxytryptamine receptor 6; assay: Binding affinity to human cloned 5-HT6 receptor in HeLa cells using [3H]- LSD as radioligand; assay type: cell-based
[6] = biological target: 5-hydroxytryptamine receptor 2B (Homo sapiens, UniProt P41595); assay: Binding affinity to human cloned 5-HT2B receptor in HEK 293 cells using [3H]- -5-HT as radioligand; assay type: cell-based, HEK293
[7] = biological target: 5-hydroxytryptamine receptor 1B (Homo sapiens, UniProt P28222); assay: Binding affinity to human cloned 5-hydroxytryptamine 1B receptor in CHO cells using [3H]5-HT as radioligand; assay type: cell-based
[8] = biological target: 5-hydroxytryptamine receptor 2A (Homo sapiens, UniProt P28223); assay: Binding affinity to human cloned 5-hydroxytryptamine 2A receptor in HEK 293 cells using [3H]- ketanserin as radioligand; assay type: cell-based, HEK293
D(2) dopamine receptor = D(2) dopamine receptor (Homo sapiens, UniProt P14416); assay: Binding affinity to human cloned Dopamine receptor D2 in CHO cells using [125I]- iodosulpride as radioligand; assay type: cell-based
D(3) dopamine receptor = D(3) dopamine receptor (Homo sapiens, UniProt P35462); assay: Binding affinity to human cloned Dopamine receptor D3 in CHO cells using [125I]- iodosulpride as radioligand; assay type: cell-based
[9] = biological target: T3, 5-hydroxytryptamine receptor 1A (Homo sapiens, UniProt P08908); assay: Binding affinity to human cloned 5-hydroxytryptamine 1A receptor in HEK 293 cells using [3H]-8-OH- DPAT as radioligand; assay type: cell-based, HEK293
T3 sequence (P08908 whole entry): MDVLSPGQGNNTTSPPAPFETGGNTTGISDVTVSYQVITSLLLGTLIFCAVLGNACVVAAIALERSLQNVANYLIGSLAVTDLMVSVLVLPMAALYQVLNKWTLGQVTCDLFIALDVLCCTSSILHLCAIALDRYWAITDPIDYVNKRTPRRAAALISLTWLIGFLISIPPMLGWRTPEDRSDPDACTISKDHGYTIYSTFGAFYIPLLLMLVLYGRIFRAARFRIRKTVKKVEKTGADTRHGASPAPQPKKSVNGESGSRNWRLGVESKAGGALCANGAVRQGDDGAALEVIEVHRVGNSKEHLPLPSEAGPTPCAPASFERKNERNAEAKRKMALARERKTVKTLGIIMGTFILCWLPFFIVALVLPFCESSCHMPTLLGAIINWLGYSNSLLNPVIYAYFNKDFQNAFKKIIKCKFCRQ

[10] = biological target: 5-hydroxytryptamine receptor 7 (Homo sapiens, UniProt P34969); assay: Binding affinity to human cloned 5-hydroxytryptamine 7 receptor in HEK 293 cells using [3H]-5-CT as radioligand; assay type: cell-based, HEK293
[11] = biological target: T1, 5-hydroxytryptamine receptor 6; assay: Binding affinity to human cloned 5-hydroxytryptamine 6 receptor in HeLa cells using [3H]- LSD as radioligand; assay type: cell-based

Chain of 5-hydroxytryptamine receptor 2A (P28223 whole entry): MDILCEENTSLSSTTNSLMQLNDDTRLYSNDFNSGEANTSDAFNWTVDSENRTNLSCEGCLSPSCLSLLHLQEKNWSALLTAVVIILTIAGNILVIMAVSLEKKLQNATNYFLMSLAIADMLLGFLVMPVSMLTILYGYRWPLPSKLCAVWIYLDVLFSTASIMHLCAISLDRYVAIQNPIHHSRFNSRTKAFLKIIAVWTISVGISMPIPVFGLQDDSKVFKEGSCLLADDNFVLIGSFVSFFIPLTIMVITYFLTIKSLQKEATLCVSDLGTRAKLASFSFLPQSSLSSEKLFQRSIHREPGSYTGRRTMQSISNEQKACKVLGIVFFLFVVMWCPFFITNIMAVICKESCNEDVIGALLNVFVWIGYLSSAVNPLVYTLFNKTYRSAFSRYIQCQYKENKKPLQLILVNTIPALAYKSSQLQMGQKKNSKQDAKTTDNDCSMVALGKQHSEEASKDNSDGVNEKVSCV
Chain of 5-hydroxytryptamine receptor 7 (P34969 whole entry): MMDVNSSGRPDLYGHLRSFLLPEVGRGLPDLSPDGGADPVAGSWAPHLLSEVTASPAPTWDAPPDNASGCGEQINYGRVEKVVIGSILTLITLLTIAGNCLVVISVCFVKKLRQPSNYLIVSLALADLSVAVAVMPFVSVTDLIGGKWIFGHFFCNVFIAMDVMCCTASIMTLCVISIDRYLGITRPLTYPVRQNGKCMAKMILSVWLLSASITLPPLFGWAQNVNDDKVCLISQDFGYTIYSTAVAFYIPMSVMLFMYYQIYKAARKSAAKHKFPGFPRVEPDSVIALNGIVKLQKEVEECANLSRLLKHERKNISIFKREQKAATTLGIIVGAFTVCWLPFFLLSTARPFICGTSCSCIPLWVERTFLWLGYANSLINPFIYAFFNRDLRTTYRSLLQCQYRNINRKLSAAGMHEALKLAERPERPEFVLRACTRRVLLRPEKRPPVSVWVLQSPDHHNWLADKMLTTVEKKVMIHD
T1 sequence (P50406 whole entry): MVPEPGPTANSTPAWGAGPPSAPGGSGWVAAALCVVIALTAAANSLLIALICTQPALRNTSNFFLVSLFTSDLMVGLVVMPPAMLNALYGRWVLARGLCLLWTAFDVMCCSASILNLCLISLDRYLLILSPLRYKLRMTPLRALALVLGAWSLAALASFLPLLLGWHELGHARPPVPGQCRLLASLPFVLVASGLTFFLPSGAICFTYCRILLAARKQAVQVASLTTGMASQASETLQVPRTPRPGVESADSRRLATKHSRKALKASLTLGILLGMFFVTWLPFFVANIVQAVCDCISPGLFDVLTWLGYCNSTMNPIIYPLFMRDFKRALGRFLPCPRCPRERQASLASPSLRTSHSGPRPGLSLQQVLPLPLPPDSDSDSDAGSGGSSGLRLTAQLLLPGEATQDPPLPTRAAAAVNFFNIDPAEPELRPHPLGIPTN
Chain of D(3) dopamine receptor (P35462 whole entry): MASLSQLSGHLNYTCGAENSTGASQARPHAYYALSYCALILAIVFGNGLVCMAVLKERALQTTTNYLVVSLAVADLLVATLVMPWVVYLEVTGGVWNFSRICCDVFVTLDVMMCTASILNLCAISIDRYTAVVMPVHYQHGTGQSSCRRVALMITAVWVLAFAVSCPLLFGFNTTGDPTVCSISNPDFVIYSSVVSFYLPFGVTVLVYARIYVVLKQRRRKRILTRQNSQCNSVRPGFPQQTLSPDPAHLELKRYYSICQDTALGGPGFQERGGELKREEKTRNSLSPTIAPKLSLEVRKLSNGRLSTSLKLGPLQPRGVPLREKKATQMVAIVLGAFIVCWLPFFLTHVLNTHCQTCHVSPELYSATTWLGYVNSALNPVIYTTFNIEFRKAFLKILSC
Chain of 5-hydroxytryptamine receptor 1B (P28222 whole entry): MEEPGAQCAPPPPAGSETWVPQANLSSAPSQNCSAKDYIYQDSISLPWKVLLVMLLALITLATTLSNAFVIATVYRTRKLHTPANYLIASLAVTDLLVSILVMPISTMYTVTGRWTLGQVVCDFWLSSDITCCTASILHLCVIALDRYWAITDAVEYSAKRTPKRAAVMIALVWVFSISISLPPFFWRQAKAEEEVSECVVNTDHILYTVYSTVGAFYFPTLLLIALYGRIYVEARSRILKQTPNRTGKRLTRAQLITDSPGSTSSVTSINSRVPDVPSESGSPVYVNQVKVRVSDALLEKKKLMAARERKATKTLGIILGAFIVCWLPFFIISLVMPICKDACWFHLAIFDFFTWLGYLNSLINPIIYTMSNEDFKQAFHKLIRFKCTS
Chain of 5-hydroxytryptamine receptor 1D (P28221 whole entry): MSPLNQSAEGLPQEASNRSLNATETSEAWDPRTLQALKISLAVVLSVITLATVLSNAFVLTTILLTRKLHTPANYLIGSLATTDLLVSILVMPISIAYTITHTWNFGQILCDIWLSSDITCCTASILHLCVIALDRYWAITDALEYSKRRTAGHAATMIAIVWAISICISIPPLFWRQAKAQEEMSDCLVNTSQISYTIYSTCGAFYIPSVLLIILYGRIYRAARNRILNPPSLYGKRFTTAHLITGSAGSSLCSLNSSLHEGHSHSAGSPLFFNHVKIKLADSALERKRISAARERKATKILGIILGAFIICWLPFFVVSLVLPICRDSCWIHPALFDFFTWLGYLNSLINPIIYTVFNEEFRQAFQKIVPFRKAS
Chain of D(2) dopamine receptor (P14416 whole entry): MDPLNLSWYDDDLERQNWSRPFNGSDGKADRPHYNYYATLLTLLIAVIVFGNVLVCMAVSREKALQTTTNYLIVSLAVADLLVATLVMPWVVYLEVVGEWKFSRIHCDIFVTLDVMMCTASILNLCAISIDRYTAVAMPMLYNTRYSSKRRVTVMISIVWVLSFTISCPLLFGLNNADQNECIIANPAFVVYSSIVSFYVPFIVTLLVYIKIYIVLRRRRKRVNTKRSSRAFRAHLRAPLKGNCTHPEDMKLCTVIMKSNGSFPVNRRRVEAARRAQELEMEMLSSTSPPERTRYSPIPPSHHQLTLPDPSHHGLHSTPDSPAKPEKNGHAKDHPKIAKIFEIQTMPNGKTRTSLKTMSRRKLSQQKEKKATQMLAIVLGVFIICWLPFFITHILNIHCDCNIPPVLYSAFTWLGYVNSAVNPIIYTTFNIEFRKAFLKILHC
Chain of 5-hydroxytryptamine receptor 2B (P41595 whole entry): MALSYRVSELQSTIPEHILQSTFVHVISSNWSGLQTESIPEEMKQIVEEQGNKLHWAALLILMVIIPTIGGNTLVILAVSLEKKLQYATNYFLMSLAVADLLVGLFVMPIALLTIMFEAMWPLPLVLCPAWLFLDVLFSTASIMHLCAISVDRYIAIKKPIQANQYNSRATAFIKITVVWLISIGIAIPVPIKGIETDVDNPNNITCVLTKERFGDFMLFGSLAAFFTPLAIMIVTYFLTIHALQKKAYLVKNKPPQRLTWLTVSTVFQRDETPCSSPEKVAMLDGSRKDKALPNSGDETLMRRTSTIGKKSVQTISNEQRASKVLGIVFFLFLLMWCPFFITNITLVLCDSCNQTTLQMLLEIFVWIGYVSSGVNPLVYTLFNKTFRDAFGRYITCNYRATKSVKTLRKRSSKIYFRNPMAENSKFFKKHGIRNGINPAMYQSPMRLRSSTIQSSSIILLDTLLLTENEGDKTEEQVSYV

Row | SMILES | Selectivity ratio [1] | Ki [2] [nM] | Ki [3] [nM] | Ki [4] [nM] | Ki [5] [nM] | Ki [6] [nM] | Ki [7] [nM] | Ki [8] [nM] | Ki (D(2) dopamine receptor) [nM] | Ki (D(3) dopamine receptor) [nM] | Ki [9] [nM] | Ki [10] [nM] | Ki [11] [nM]
1 | Cc1c(S(=O)(=O)Nc2ccc3nccc(N4C[C@@H](C)N[C@@H](C)C4)c3c2)sc2ccc(Cl)cc12 | 160 | 5.01 | – | – | – | – | – | – | – | – | – | – | –
2 | Cc1c(S(=O)(=O)Nc2ccc3nccc(N4CCNCC4)c3c2)sc2ccc(Cl)cc12 | 320 | 2 | > 2510 | 631 | 2 | > 5010 | 2000 | > 2510 | > 10000 | > 1580 | 1000 | > 7940 | –
3 | Cc1c(S(=O)(=O)Nc2ccc3nccc(N4CCN[C@H](C(C)C)C4)c3c2)sc2ccc(Cl)cc12 | – | 20 | – | – | – | – | – | – | – | – | – | – | –
4 | Cc1sc2cc(Cl)cc(Cl)c2c1S(=O)(=O)Nc1ccc2nccc(N3CCNCC3)c2c1 | 40 | 7.94 | – | – | – | – | – | – | – | – | – | – | –
5 | Cc1c(S(=O)(=O)Nc2ccc3nccc(N4CCNCC4)c3c2)oc2ccc(Cl)cc12 | 200 | 3.98 | – | – | – | – | – | – | – | – | – | – | –
6 | Cc1c(S(=O)(=O)Nc2ccc3nccc(N4C[C@@H](C)NC[C@@H]4C)c3c2)sc2ccc(Cl)cc12 | – | 31.6 | – | – | – | – | – | – | – | – | – | – | –
7 | O=S(=O)(Nc1ccc2nccc(N3CCNCC3)c2c1)c1ccc(I)cc1 | 100 | 1.58 | – | – | – | – | – | – | – | – | – | – | –
8 | Cc1c(S(=O)(=O)Nc2ccc3nccc(N4CCNCC4)c3c2)sc2c(Cl)cc(Cl)cc12 | 25 | 6.31 | – | – | – | – | – | – | – | – | – | – | –
9 | Cc1c(S(=O)(=O)Nc2ccc3nccc(N4CCN[C@H](C)C4)c3c2)sc2ccc(Cl)cc12 | 3200 | 2 | – | – | – | – | – | – | – | – | – | – | –
10 | Cc1c(S(=O)(=O)Nc2ccc3nccc(N4CCN5CCC[C@H]5C4)c3c2)sc2ccc(Cl)cc12 | 130 | 2 | – | – | – | – | – | – | – | – | – | – | –
11 | Cc1cnc2ccc(NS(=O)(=O)c3sc4ccc(Cl)cc4c3C)cc2c1N1CCNCC1 | 100 | 2.51 | – | – | – | – | – | – | – | – | – | – | –
12 | Cc1cc(S(=O)(=O)Nc2ccc3nccc(N4CCNCC4)c3c2)c(C)cc1Cl | 500 | 1.26 | – | – | – | – | – | – | – | – | – | – | –
13 | Cc1c(S(=O)(=O)Nc2ccc3ncc(N4CCN(C)CC4)cc3c2)sc2ccc(Cl)cc12 | – | 79.4 | – | – | – | – | – | – | – | – | – | – | –
14 | O=S(=O)(Nc1ccc2nccc(N3CCNCC3)c2c1)c1cc(Cl)cc(Cl)c1 | – | 25.1 | – | – | – | – | – | – | – | – | – | – | –
15 | Cc1sc2c(Cl)cc(Cl)cc2c1S(=O)(=O)Nc1ccc2nccc(N3CCNCC3)c2c1 | 200 | 2 | – | – | – | – | – | – | – | – | – | – | –
16 | O=S(=O)(Nc1ccc2nccc(N3CCNCC3)c2c1)c1cccc2c(Cl)cccc12 | 80 | 3.16 | – | – | – | – | – | – | – | – | – | – | –
17 | CC(C)c1c(S(=O)(=O)Nc2ccc3nccc(N4CCNCC4)c3c2)sc2ccc(Cl)cc12 | 160 | 1.58 | – | – | – | – | – | – | – | – | – | – | –
18 | Cc1sc2c(Cl)cccc2c1S(=O)(=O)Nc1ccc2nccc(N3CCNCC3)c2c1 | 130 | 2 | – | – | – | – | – | – | – | – | – | – | –

The next lines start with the values.

Row | Selectivity ratio [1] | Ki [2] [nM] | Ki [3] [nM] | Ki [4] [nM] | Ki [5] [nM] | Ki [6] [nM] | Ki [7] [nM] | Ki [8] [nM] | Ki (D(2) dopamine receptor) [nM] | Ki (D(3) dopamine receptor) [nM] | Ki [9] [nM] | Ki [10] [nM] | Ki [11] [nM] | SMILES
19 | 250 | 1 | 1260 | 398 | 1 | 1260 | 501 | > 2000 | > 3980 | > 1580 | 251 | 1580 | – | Cc1sc2ccc(Cl)cc2c1S(=O)(=O)Nc1ccc2nccc(N3CCNCC3)c2c1
20 | 1260 | 0.631 | > 2000 | 1260 | – | > 5010 | 1580 | > 3160 | > 10000 | > 5010 | 794 | > 10000 | 0.631 | CC(C)(C)c1ccc(S(=O)(=O)Nc2ccc3nccc(N4CCNCC4)c3c2)cc1
21 | 320 | 1.26 | > 3980 | 398 | 1.26 | > 6310 | 2510 | > 2510 | > 3160 | > 2000 | 1000 | > 5010 | – | Cc1c(S(=O)(=O)Nc2ccc3nccc(N4CCN[C@@H](C)C4)c3c2)sc2ccc(Cl)cc12
22 | 320 | 0.501 | – | 158 | 0.501 | > 7940 | 316 | 501 | > 5010 | > 3160 | 631 | > 10000 | – | O=S(=O)(Nc1ccc2nccc(N3CCNCC3)c2c1)c1ccc(-c2ccccc2)cc1
23 | 250 | 1 | > 5010 | 251 | 1 | > 10000 | 501 | 1000 | > 7940 | > 3980 | 794 | 2000 | – | Cc1c(S(=O)(=O)Nc2ccc3nccc(N4CCN(C)CC4)c3c2)sc2ccc(Cl)cc12
24 | 250 | 1.26 | 2510 | 316 | 1.26 | > 7940 | 1260 | > 2000 | > 6310 | > 1000 | 794 | > 5010 | – | Cc1cc(N2CCNCC2)c2cc(NS(=O)(=O)c3sc4ccc(Cl)cc4c3C)ccc2n1
25 | 1000 | 1.26 | 1260 | 2510 | 1.26 | > 3980 | 3160 | > 1260 | > 1000 | > 10000 | > 3980 | > 5010 | – | CCc1c(S(=O)(=O)Nc2ccc3nccc(N4CCNCC4)c3c2)sc2ccc(Cl)cc12
26 | 160 | 1 | > 2510 | 200 | 1 | > 5010 | 631 | 1000 | > 5010 | 2510 | 158 | 2510 | – | O=S(=O)(Nc1ccc2nccc(N3CCNCC3)c2c1)c1ccc2c(Cl)cccc2c1

— ChEMBL document CHEMBL1134724, “Novel (4-piperazin-1-ylquinolin-6-yl) arylsulfonamides with high affinity and selectivity for the 5-HT(6) receptor” (Bioorg Med Chem Lett, 2001)
